Assay results reported in US7749985B2, “Acyloxyalkyl carbamate prodrugs, methods of synthesis and use” (XenoPort, Inc., priority 2006, dated 2010).

How the values were obtained:
[1] = pH-Dependent Stability of prodrugs in aqueous buffers; assay type: physicochemical; details: pH 2 to pH 8, 37° C.
Experimental: (§1) The stabilities of prodrugs were evaluated in one or more in vitro systems using a variety of tissue preparations following methods known in the art. The chemical stability of prodrugs in aqueous buffers at a pH of 2.0, 7.4, and 8.0 were also measured. Tissues were obtained from commercial sources (e.g., Pel-Freez Biologicals, Rogers, Ark., or GenTest Corporation, Woburn, Mass.). Experimental conditions used for the in vitro studies are described in Table 1. Each preparation was incubated with test compound at 37° C. for one hour. Aliquots (50 μL) were removed at 0, 30, and 60 min and quenched with 0.1% trifluoroacetic acid in acetonitrile. Samples were then centrifuged and analyzed by LC/MS/MS. Stability of prodrugs towards specific enzymes (e.g., peptidases, etc.) was also assessed in vitro by incubation with the purified enzyme.
pH-Dependent Stability: The long-term pH-dependent stability of tranexamic acid prodrug at 37° C. was measured by LC/MS/MS at five different representative pH values from pH 2.0 to pH 8.0 was determined. The test concentration was 5 μM. The amount of remaining prodrug and the amount of tranexamic acid released from the prodrug was determined at 0 hour and after 24 hours.

[2] = Enzymatic cleavage of prodrugs in vitro (tissue preparations of Table 1); assay type: in vitro ADME; details: in the presence of the tissue preparations, 37° C.
Experimental: as §1
Pancreatin Stability: Stability studies were conducted by incubating prodrug (5 μM) with 1% (w/v) pancreatin (Sigma, P-1625, from porcine pancreas) in 0.025 M Tris buffer containing 0.5 M NaCl (pH 7.5) at 37° C. for 60 min. The reaction was stopped by addition of 2 volumes of methanol. After centrifugation at 14,000 rpm for 10 min, the supernatant was removed and analyzed by LC/MS/MS.
Caco-2 Homogenate S9 Stability: Caco-2 cells were grown for 21 days prior to harvesting. Culture medium was removed and cell monolayers were rinsed and scraped off into ice-cold 10 mM sodium phosphate/0.15 M potassium chloride, pH 7.4. Cells were lysed by sonication at 4° C. using a probe sonicator. Lysed cells were then transferred into 1.5 mL centrifuge vials and centrifuged at 9,000 g for 20 min at 4° C. The resulting supernatant (Caco-2 cell homogenate S9 fraction) was aliquoted into 0.5 mL vials and stored at −80° C. until used.
For stability studies, prodrug (5 μM) was incubated in Caco-2 homogenate S9 fraction (0.5 mg protein per mL) for 60 min at 37° C. Concentrations of intact prodrug and released tranexamic acid were determined at zero time and 60 min using LC/MS/MS.

[3] = animal models (Merino et al., Biopharm. Drug. Disp. 1989); cited from earlier work

Compound | stability from pH 2 to pH 8 [1] | hydrolysis to release the corresponding 3-aminopropylphosphinic acid analog [2] | absorption following administration into the colon [3]
CCCCP(=O)(O)CCCNC(=O)OCOC(=O)C(C)C [Compound 35, 3-{[Isobutanoyloxymethoxy]carbonylamino}propyl(n-butyl)phosphinic Acid] | good stability | hydrolyzed to release the corresponding 3-aminopropylphosphinic acid analogs | 
NCC(CC(=O)O)c1ccc(Cl)cc1 (racemic) [Baclofen, (±)-4-Amino-3-(4-chlorophenyl)butanoic acid] |  |  | poorly absorbed
CCCCP(=O)(O)CCCNC(=O)OC(OC(=O)C(C)C)C(C)C (centres unmarked) [39/40, 3-{[1-isobutanoyloxyisobutoxy]carbonylamino}propyl(n-butyl)phosphinic acid] | good stability | hydrolyzed to release the corresponding 3-aminopropylphosphinic acid analogs | 
CCCCP(=O)(O)CCCNC(=O)OC(C)OC(=O)c1ccccc1 (centres unmarked) [Compound 211, 3-{[1-Benzoyloxyethoxy]carbonylamino}propyl(n-butyl)phosphinic Acid] | good stability | hydrolyzed to release the corresponding 3-aminopropylphosphinic acid analogs | 
CCCCP(=O)(O)CCCNC(=O)OC(C)OC(=O)C(C)C (centres unmarked) [Compound 31, 3-{[1-Isobutanoyloxyethoxy]carbonylamino}propyl(n-butyl)phosphinic Acid] | good stability | hydrolyzed to release the corresponding 3-aminopropylphosphinic acid analogs | 
CCCCP(=O)(O)CCCNC(=O)OCOC(=O)c1ccccc1 [Compound 212, 3-{[1-Benzoyloxymethoxy]carbonylamino}propyl(n-butyl)phosphinic Acid] | good stability | hydrolyzed to release the corresponding 3-aminopropylphosphinic acid analogs | 
